Experimental findings from patent US20230310356A1, “COMPOSITION FOR PREVENTING, AMELIORATING, OR TREATING BRAIN DAMAGE AND MILD COGNITIVE IMPAIRMENT COMPRISING GLUTAMINE AS EFFECTIVE COMPONENT” (INDUSTRY-ACADEMIC COOPERATION FOUNDATION GYEONGSANG …, priority 2020, published 2023) are described below.

For one experiment, the system named is iNOS. Nature of the experiment: Double-IHC protein expression after CIS and glutamine supplementation: iNOS. In kind it is in vivo, mouse. The conditions noted are these: microglial cells in infralimbic cortex and hippocampal CA1 region; glutamine supplementation diet vs stress group. The procedure: (§1) Control (CTL) is a group which received normal diet (common diet with nutritional balance) without any stress, CTL+Gln group is a normal diet group supplemented with glutamine (150 mg/kg of feed) and without any stress, STR is a normal diet group under stress, and STR+Gln group is a normal diet group supplemented with glutamine (150 mg/kg of feed) under stress. The stress group (STR) was individually brought by force to a restrainer for 2 hours every day (i.e., between 2 PM and 4 PM) so that the animals are applied with chronic immobilization stress for 15 days. To determine the specific changes in the brain tissues after glutamine supplementation, double staining was carried out with a cell marker so that the proteins related to a change in ROS/RNS content (i.e., iNOS; nNOS; and p47phox and p67phox as a subunit of NOX) with cell markers are analyzed by double-IHC (immunohistochemistry). Twenty-four hours after applying the last stress, the mouse was anesthetized with avertin, and perfused with PBS (pH 7.4) and 4% formaldehyde. After that, the brain was removed, fixed, and cut to a thickness with 40 μm. […]

The next experiment relates to p67phox. Kind of experiment: Double-IHC protein expression after CIS and glutamine supplementation: p67phox. In kind it is in vivo, mouse. Particulars: microglial cells in infralimbic cortex and hippocampal CA1 region; glutamine supplementation diet vs stress group. On the procedure: as §1

As to `NC(=O)CC[C@H](N)C(=O)O` [glutamine], the “expression amount of iNOS” value with iNOS is listed as “statistically significant decrement”. In the experiment on p67phox, the “expression amount of p67phox” value is listed as “statistically significant decrement”.
